# Laboratory results from publication PMC6958387, “Biological Evaluation of Arylsemicarbazone Derivatives as Potential Anticancer Agents” (Pharmaceuticals, 2019).
# What was measured:
# HL-60 cells [1] = assay: Annexin V-FITC/7-AAD test, flow cytometry; assay type: cell-based, human; settings: for cells in initial apoptosis [Annexin V(+) and 7-AAD(−)] / cells in late apoptosis [Annexin V(+) and 7-AAD(+)] / dead cells [Annexin V(−) and 7-AAD (+)]: 72 h
# Procedure: Aiming to better study the mechanism of induction of death involved in HL-60 cells after treatment with compounds 3c and 4a, a flow cytometric test was performed after double staining with annexin V-FITC/7-AAD. This assay is based on the ability of annexin V to bind with high affinity to phosphatidylserine which is translocated to the outer membrane of apoptotic cells and the 7-AAD dye binds to the DNA of cells with loss of membrane integrity. Thus, in this test it is possible to identify four distinct populations: viable cells [Annexin V(−) and 7-AAD(−)], initial apoptotic cells [Annexin V(+) and 7-AAD(−)], late apoptotic cells [Annexin V(+) and 7-AAD(+)] and dead cells [Annexin V(−) and 7-AAD (+)] [59].
# (§1) HL-60 cells (3 × 10^5) were plated in 24-well plates and treated with the compounds 3c (13 and 26 μM) and 4a (11 and 22 μM) for 72 h at 37 °C with 5% CO2. In all trials, doxorubicin was used as a positive control. After the incubation period, an aliquot of 500 μL of treated and untreated cells suspension was transferred to an Eppendorf tube and centrifuged to remove the supernatant and continue the protocol of the test. In the cell viability and annexin V assays, kits were used, ViaCount kit and guava nexin kit (Guava Technologies), respectively. The protocols performed in these tests followed the manufacturer’s instructions. For to analyze mitochondrial depolarization, rhodamine 123 fluorescent dye was used. In the assay for cell cycle analysis and DNA fragmentation propidium iodide was used. The experiments were performed on Guava EasyCyte HT (Merck-Millipore) flow cytometer, acquiring 5000 events. The data were analyzed in Guava-Soft™ software version 2.7. Three independent experiments were performed in triplicate.
# [2] = target: panel of ten different protein kinases; assay: Kinase inhibition, panel of ten protein kinases; assay type: biochemical; settings: 3c: except towards HASPIN, CK1 and GSK3; inactive = IC50 > 10 μM; read-out: IC50 across the kinase panel
# Excerpt: A panel of ten native or recombinant protein kinases was used during this study: […]
# HL-60 cells [3] = assay: Cell viability, Guava ViaCount kit, flow cytometry; assay type: cell-based, human; settings: 22 μM, 72 h
# Procedure: Initially, the percentage of viable cells in apoptosis or necrosis was determined by the ViaCount assay at the Guava EasyCyte HT flow cytometer (Merck-Millipore, Hayward, CA, USA). The ViaCount kit (Merck-Millipore, Hayward, CA, USA) determines cell viability based on membrane permeability. The concentrations used in the cytometric tests were values corresponding to the IC50 and 2x IC50 of 72 h and the chosen cell line was HL-60 (promyelocytic leukemia).
# as §1, with “The experiments were performed on Guava EasyCyte HT (Merck-Millipore) flow cytometer, acquiring 5000 events.” left out, “Three independent experiments were performed in triplicate.” left out
IC50 [2] [µM],melting point [°C],SMILES,cells in initial apoptosis [Annexin V(+) and 7-AAD(−)] (HL-60 cells [1]; 13 μM) [%],cells in late apoptosis [Annexin V(+) and 7-AAD(+)] (HL-60 cells [1]; 13 μM) [%],cells in initial apoptosis [Annexin V(+) and 7-AAD(−)] (HL-60 cells [1]; 26 μM) [%],cells in late apoptosis [Annexin V(+) and 7-AAD(+)] (HL-60 cells [1]; 26 μM) [%],cells in apoptosis (annexin V assay) (HL-60 cells [1]; highest concentration tested (26 μM)),cells in early apoptosis (ViaCount) (HL-60 cells [3]) [%],cells in initial apoptosis [Annexin V(+) and 7-AAD(−)] (HL-60 cells [1]; 11 μM) [%],cells in late apoptosis [Annexin V(+) and 7-AAD(+)] (HL-60 cells [1]; 11 μM) [%],dead cells [Annexin V(−) and 7-AAD (+)] (HL-60 cells [1]; 11 μM) [%],cells in initial apoptosis [Annexin V(+) and 7-AAD(−)] (HL-60 cells [1]; 22 μM) [%],cells in late apoptosis [Annexin V(+) and 7-AAD(+)] (HL-60 cells [1]; 22 μM) [%],dead cells [Annexin V(−) and 7-AAD (+)] (HL-60 cells [1]; 22 μM) [%]
0.073 to 5.1,–,"NC(=O)N/N=C/c1c(O)ccc2ccccc12 [Compound 3c, 2-Hydroxynaphthaldehyde Semicarbazone]",16.7,7.4,27.2,18.1,approximately 50%,–,–,–,–,–,–,–
> 10,215 to 217,"Cc1ccc(C=NNC(N)=O)cc1 [Compound 3g, 4-Methylbenzaldehyde Semicarbazone]",–,–,–,–,–,–,–,–,–,–,–,–
–,–,"CCCCN(N=Cc1ccc([N+](=O)[O-])o1)C(N)=O [Compound 4a, 5-Nitro-2-(N^2-n-butyl)furfuraldehyde Semicarbazone]",–,–,–,–,–,65.3,5.4,8.3,9.1,4.7,12.5,~50
